Here are results for two molecules from patent US11529338B2, “Compositions and methods for treating cancer” (Cedars-Sinai Medical Center, priority 2017, dated 2022).

What is called Kd is the concentration at which binding is half-saturated.

In the experiment the target is T1, OC2-HOX (Homo sapiens, UniProt O95948).
T1 sequence (O95948 426-485 limits assumed): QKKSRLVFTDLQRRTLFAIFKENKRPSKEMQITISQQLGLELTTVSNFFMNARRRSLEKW
The experiment can be described thus: Binding to OC2-HOX measured by surface plasmon resonance. Conditions: based on 2:2 Langmuir model simulation of the bimolecular interactions, read-out: binding affinity KD. The text has this: FIG. 12A-FIG. 12C depicts in accordance with various embodiments of the invention, CSRM617 derivatives. FIG. 12A depicts chemical structures of CSRM617 derivatives CSRM123 and CSRM843. FIG. 12B depicts dose-dependent binding of CSRM123 and CSRM843 to OC2-HOX, measured by surface plasmon resonance, is shown. […] FIG. 12C depicts IC50 values for compounds CSRM617, CSRM123 and CSRM843 in 22Rv1 and DU145 cell lines.

SMILES strings stand for the structures.

In the case of `NC(=O)C1CCCCN1C(=O)NCCc1ccc(O)c(O)c1O` (centres unmarked) [CSRM123], the Kd is 1.15 µM. Regarding `O=C(CNC(=O)Cc1ccc(O)c(O)c1O)NO` [CSRM843], the Kd was 0.118 µM.
